Source: patent US10351594B2, “Process for preparing compounds having triple activities of thrombolysis, antithrombosis, and radical scavenging” (Shanghai Lumosa Therapeutics Co., Ltd., priority 2013, dated 2019)
Entries after “also recorded” stand apart in the source; their conditions may differ. Marks after values point to notes of the source that are not given here.

How the values were obtained:
[1] = Superoxide anionic radical scavenging activity (xanthine/xanthine oxidase, DMPO); format: biochemical; details: n = 6
Protocol: […] xanthine was dissolved in 1 mL of pure water to obtain 0.5 M xanthine solution (milk white color, largely insoluble). Commercially available raw solution of xanthine oxidase was diluted 10 folds to obtain solution of xanthine oxidase. Saturated DETAPAC solution was diluted 20 folds to obtain 0.9 mM solution. 11.316 mg DMPO was dissolved in 1 mL of pure water to obtain 0.1 M DMPO solution.
5 μL DMPO solution+5 μL DETAPAC solution+5 μL xanthine solution+5 μL xanthine oxidase solution+5 μL compounds 5Aa-p solution
The first peak height of superoxide anion signal of 5 μL DMPO solution+5 μL DETAPAC solution+5 μL xanthine solution+5 μL xanthine oxidase solution+5 μL water was measured and repeated for 6 times. This peak height defined as the known peak height of superoxide anion signal. The first peak height of superoxide anion signal of 5 μL DMPO solution+5 μL DETAPAC solution+5 μL xanthine solution+5 μL xanthine oxidase solution+5 μL solution of one of compounds 5Aa-p was measured and repeated for 6 times. This peak height defined as the residual peak height of the superoxide anion signal scavenged by one of the compounds 5Aa-p. Scavenging ratio=(known peak height of superoxide anion signal−residual peak height of superoxide anion signal of compounds 5Aa-p)/known peak height of superoxide anion signal

[2] = tested on: thrombus (rat arteriovenous bypass thrombolysis model); experiment: Thrombolytic activity via intravenous administration, rat arteriovenous bypass thrombolysis model; format: in vivo, male SD rats; details: for Weight reduction in thrombus: n = 10; for Thrombolytic activity, result in words: intravenous, 0.1 nmol/kg (5Ak also 0.01 and 0.001 nmol/kg), urokinase 20000 U/kg
Protocol: 200-220 g male SD rats were anesthetized with 20% urethane solution (6 mL/kg, ip). Anesthetized rats were fixed in a supine position, and the right common carotid artery was separated, clamped at the proximal end with an arterial clip, and penetrated with a suture at the proximal and distal ends, respectively. The suture at the distal end is clipped tightly by a hemostatic clamp at the skin/fur. Cannulation was performed at the distal end, the arterial clamp was loosened, and about 1 ml arterial blood was discharged into a 1 mL EP vial. 0.1 mL rat arterial blood was injected into a vertically fixed glass tube (15 mm in length, with an inner diameter of 2.5 mm and an outer diameter of 5.0 mm, sealed with a rubber stopper at the bottom), into which was immediately inserted a thrombus immobilization screw made of stainless steel. […] 40 min after the blood coagulated, the rubber stopper at the bottom of the glass tube was removed, the stem of the thrombus immobilization screw was fixed by forceps, and the thrombus-wrapped thrombus immobilization screw was carefully taken out from the glass tube and precisely weighted.
A bypass cannula was composed of 3 segments. The middle segment was a polyethylene tube having a length of 60 mm and an inner diameter of 3.5 mm. The segments on both ends were similar polyethylene tubes having a length of 100 mm, an inner diameter of 1 mm and an outer diameter of 2 mm, one end of which was pulled to form a tip, with an outer diameter of 1.0 mm (used in inserting into the rat carotid artery or vein), the other end of which was sheathed by a polyethylene tube having a length of 7 mm and an outer diameter of 3.5 mm (thickened, used in inserting into the polyethylene tube of the middle segment). The inner wall of the 3-segment cannula was entirely silylated. The thrombus-wrapped thrombus immobilization screw was placed into the polyethylene tube of the middle segment, and both ends of the tube sheath the thickened ends of two polyethylene tubes. The cannula was filled with a heparin solution in normal saline (50 IU/kg) through the tip end by using an injector and was ready for use.
The left external jugular vein of the rat was separated and penetrated with a suture at the proximal and distal ends respectively, and the distal end was ligated. An incision was carefully made on the exposed left external jugular vein, and the tip of the bypass cannula prepared as described above was inserted into the proximal end of the incision in the left external jugular vein, away from the stem of the thrombus immobilization screw in the middle segment of the bypass cannula (which accommodated the accurately weighed thrombus immobilization screw). A precise amount of heparin in saline (50 IU/kg) was injected through the tip at the other end by using an injector. At this moment, without removing the injector from the polyethylene tube, the tube between the injector and the polyethylene tube was clamped with a hemostatic clamp. The blood flow was stopped by clamping the proximal end of the right common carotid artery with an arterial clip, and an incision was cut carefully across the common carotid artery near the clip. The injector was pulled out of the polyethylene tube through the tip, and the tip of the polyethylene tube was then inserted into the proximal end of the artery incision. Both ends of the bypass cannula were fixed to the artery or vein with #4 sutures.
A scalp needle was used to pass saline solution, a urokinase in saline solution or varied concentrations of the compounds in saline solution through the middle section of the bypass cannula (which accommodated the accurately weighed thrombus immobilization screw) to a position at the proximal vein and away from the thrombus immobilization screw. The artery clip was then removed to allow blood to flow from the artery to the vein through the bypass cannula. A rat arteriovenous bypass thrombolysis model was thus established. […]

[3] = Hydroxyl free radical scavenging activity (DMPO signal peak height); format: biochemical; details: n = 6; read-out: EC50 of scavenging •OH
Protocol: 11.316 mg DMPO ([…], Sigma) was dissolved in 1 mL of pure water to obtain 0.1 M DMPO solution. […] FeSO4.7H2O was dissolved in 1 mL of pure water to obtain 10 mM solution. 30% medical H2O2 was diluted to 0.2%.
The first peak height of the OH signal of 2.5 μL FeSO4.7H2O solution+2.5 μL DMPO solution+5 μL H2O2 solution+5 μL water was measured and repeated for 6 times. This peak height defined as the known peak height of OH signal. The first peak height of the OH signal of 2.5 μL FeSO4.7H2O solution+2.5 μL DMPO solution+5 μL H2O2 solution+5 μL solution of one of the compounds 5Aa-p was measured and repeated for 6 times. This peak height defined as the residual peak height of the OH signal scavenged by one of the compounds 5Aa-p. Scavenging ratio=(known peak height of OH signal−residual peak height of OH signal of compounds 5Aa-p)/known peak height of OH signal

[4] = rat, intravenous injection, 5Aa-p 0.1 nmol/kg, 1 hour

C[C@H](NC(=O)[C@@H]1CCCN1)C(=O)N[C@H](C(=O)NCCCC[C@H](NC(=O)[C@@H]1Cc2cc(O)c(O)cc2C(C)(C)N1)C(=O)O)[C@@H](C)O [Compound 5Aj, 3S-6,7-dihydroxy-1,1-dimethyl-1,2,3,4-tetrahydro-isoquinoline-3-acyl-Lys(Pro-Ala-Thr)]
EC50 [1]: 417 ± 95 µM
Weight reduction in thrombus [2, 4]: 15.23 ± 2.45^a mg
EC50 [3]: 416 ± 28 µM

C[C@H](NC(=O)[C@@H]1CCCN1)C(=O)N[C@@H](Cc1c[nH]c2ccccc12)C(=O)NCCCC[C@H](NC(=O)[C@@H]1Cc2cc(O)c(O)cc2C(C)(C)N1)C(=O)O [Compound 5Ac, 3S-6,7-dihydroxy-1,1-dimethyl-1,2,3,4-tetrahydro-isoquinoline-3-acyl-Lys(Pro-Ala-Trp)]
EC50 [1]: 366 ± 71 µM
Weight reduction in thrombus [2, 4]: 16.23 ± 2.81^a mg
EC50 [3]: 378 ± 85 µM

3S-6,7-dihydroxy-1,1-dimethyl-1,2,3,4-tetrahydro-isoquinoline-3-acyl-Lys(Pro-Ala-Gly) [Compound 5Ag]
EC50 [1]: 467 ± 94 µM
Weight reduction in thrombus [2, 4]: 18.98 ± 2.14^b mg
Thrombolytic activity, result in words ([2]; rat): comparable to that of urokinase; also recorded: higher thrombolytic activity
EC50 [3]: 422 ± 61 µM

C[C@H](NC(=O)[C@@H]1CCCN1)C(=O)N[C@@H](CCC(=O)O)C(=O)NCCCC[C@H](NC(=O)[C@@H]1Cc2cc(O)c(O)cc2C(C)(C)N1)C(=O)O [Compound 5Ap, 3S-6,7-dihydroxy-1,1-dimethyl-1,2,3,4-tetrahydro-isoquinoline-3-acyl-Lys(Pro-Ala-Glu)]
EC50 [1]: 420 ± 73 µM
Weight reduction in thrombus [2, 4]: 16.03 ± 2.14^a mg
EC50 [3]: 400 ± 51 µM

C[C@H](NC(=O)[C@@H]1CCCN1)C(=O)N[C@@H](CCCCN)C(=O)NCCCC[C@H](NC(=O)[C@@H]1Cc2cc(O)c(O)cc2C(C)(C)N1)C(=O)O [Compound 5Ak, 3S-6,7-dihydroxy-1,1-dimethyl-1,2,3,4-tetrahydro-isoquinoline-3-acyl-Lys(Pro-Ala-Lys)]
EC50 [1]: 363 ± 94 µM
Weight reduction in thrombus ([2]; Table 2, 5Ak 0.001 nmol/kg i.v.): 11.73 ± 2.15 ^c mg
Weight reduction in thrombus ([2]; Table 2, 5Ak 0.01 nmol/kg i.v.): 14.62 ± 2.46 b mg
Weight reduction in thrombus ([2]; Table 2, 5Ak 0.1 nmol/kg i.v.): 21.61 ± 4.62^a mg
Weight reduction in thrombus [2, 4]: 19.38 ± 2.81^b mg
Thrombolytic activity, result in words ([2]; rat): comparable to that of urokinase; also recorded: higher thrombolytic activity; also recorded: highest thrombolytic activity; also recorded: obvious dose-effect relationship
EC50 [3]: 422 ± 82 µM

CC[C@H](C)[C@H](NC(=O)[C@H](C)NC(=O)[C@@H]1CCCN1)C(=O)NCCCC[C@H](NC(=O)[C@@H]1Cc2cc(O)c(O)cc2C(C)(C)N1)C(=O)O [Compound 5Ai, 3S-6,7-dihydroxy-1,1-dimethyl-1,2,3,4-tetrahydro-isoquinoline-3-acyl-Lys(Pro-Ala-Ile)]
EC50 [1]: 452 ± 64 µM
Weight reduction in thrombus [2, 4]: 16.00 ± 2.03^a mg
EC50 [3]: 495 ± 61 µM

C[C@H](NC(=O)[C@@H]1CCCN1)C(=O)N[C@@H](CC(=O)O)C(=O)NCCCC[C@H](NC(=O)[C@@H]1Cc2cc(O)c(O)cc2C(C)(C)N1)C(=O)O [Compound 5Ao, 3S-6,7-dihydroxy-1,1-dimethyl-1,2,3,4-tetrahydro-isoquinoline-3-acyl-Lys(Pro-Ala-Asp)]
EC50 [1]: 435 ± 65 µM
Weight reduction in thrombus [2, 4]: 15.86 ± 2.21^a mg
Thrombolytic activity, result in words ([2]; rat): comparable to that of urokinase
EC50 [3]: 396 ± 48 µM

C[C@H](NC(=O)[C@@H]1CCCN1)C(=O)N[C@@H](CC(N)=O)C(=O)NCCCC[C@H](NC(=O)[C@@H]1Cc2cc(O)c(O)cc2C(C)(C)N1)C(=O)O [Compound 5An, 3S-6,7-dihydroxy-1,1-dimethyl-1,2,3,4-tetrahydro-isoquinoline-3-acyl-Lys(Pro-Ala-Asn)]
EC50 [1]: 383 ± 94 µM
Weight reduction in thrombus [2, 4]: 16.44 ± 2.32^a mg
EC50 [3]: 572 ± 72 µM

3S-6,7-dihydroxy-1,1-dimethyl-1,2,3,4-tetrahydro-isoquinoline-3-acyl-Lys(Pro-Ala-Val) [Compound 5Ab]
EC50 [1]: 471 ± 34 µM
Weight reduction in thrombus [2, 4]: 17.12 ± 1.64^a mg
EC50 [3]: 471 ± 71 µM

C[C@H](NC(=O)[C@@H]1CCCN1)C(=O)N[C@@H](CO)C(=O)NCCCC[C@H](NC(=O)[C@@H]1Cc2cc(O)c(O)cc2C(C)(C)N1)C(=O)O [Compound 5Ah, 3S-6,7-dihydroxy-1,1-dimethyl-1,2,3,4-tetrahydro-isoquinoline-3-acyl-Lys(Pro-Ala-Ser)]
EC50 [1]: 401 ± 72 µM
Weight reduction in thrombus [2, 4]: 17.10 ± 1.79^a mg
EC50 [3]: 413 ± 73 µM

3S-6,7-dihydroxy-1,1-dimethyl-1,2,3,4-tetrahydro-isoquinoline-3-acyl-Lys(Pro-Ala-Ala) [Compound 5Aa]
EC50 [1]: 477 ± 56 µM
Weight reduction in thrombus [2, 4]: 19.35 ± 2.76^b mg
Thrombolytic activity, result in words ([2]; rat): comparable to that of urokinase; also recorded: higher thrombolytic activity
EC50 [3]: 459 ± 66 µM

C[C@H](NC(=O)[C@@H]1CCCN1)C(=O)N[C@@H](CCC(N)=O)C(=O)NCCCC[C@H](NC(=O)[C@@H]1Cc2cc(O)c(O)cc2C(C)(C)N1)C(=O)O [Compound 5Am, 3S-6,7-dihydroxy-1,1-dimethyl-1,2,3,4-tetrahydro-isoquinoline-3-acyl-Lys(Pro-Ala-Gln)]
EC50 [1]: 371 ± 45 µM
Weight reduction in thrombus [2, 4]: 16.65 ± 2.52^a mg
EC50 [3]: 466 ± 77 µM

C[C@H](NC(=O)[C@@H]1CCCN1)C(=O)N[C@@H](Cc1ccc(O)cc1)C(=O)NCCCC[C@H](NC(=O)[C@@H]1Cc2cc(O)c(O)cc2C(C)(C)N1)C(=O)O [Compound 5Ad, 3S-6,7-dihydroxy-1,1-dimethyl-1,2,3,4-tetrahydro-isoquinoline-3-acyl-Lys(Pro-Ala-Tyr)]
EC50 [1]: 354 ± 71 µM
Weight reduction in thrombus [2, 4]: 18.11 ± 2.48^b mg
Thrombolytic activity, result in words ([2]; rat): higher thrombolytic activity
EC50 [3]: 369 ± 32 µM

C[C@H](NC(=O)[C@@H]1CCCN1)C(=O)N[C@@H](Cc1ccccc1)C(=O)NCCCC[C@H](NC(=O)[C@@H]1Cc2cc(O)c(O)cc2C(C)(C)N1)C(=O)O [Compound 5Af, 3S-6,7-dihydroxy-1,1-dimethyl-1,2,3,4-tetrahydro-isoquinoline-3-acyl-Lys(Pro-Ala-Phe)]
EC50 [1]: 485 ± 31 µM
Weight reduction in thrombus [2, 4]: 17.92 ± 1.69^b mg
Thrombolytic activity, result in words ([2]; rat): comparable to that of urokinase; also recorded: higher thrombolytic activity
EC50 [3]: 544 ± 43 µM
